The test system of one assay is Wnt signaling. Briefly: TopFlash reporter gene bioassay in SW480 cells. The settings on record: Homo sapiens, SW480, TopFlash reporter gene assay, inhibition of Wnt signaling; read-out: RGA, IC50 (μM) TopF. The assay is classed as cell-based.
Take `C=CCN1CC(=O)N2[C@@H](Cc3ccc(O)cc3)C(=O)N(Cc3cccc(-c4ccccc4O)c3)C[C@@H]2N1C(=O)NCc1ccccc1` [compound 115]: the IC50 was 1.43 ± 0.27 µM.

In the case of `C=CCN1CC(=O)N2[C@@H](Cc3ccc(O)cc3)C(=O)N(Cc3cccc(Cl)c3N(C)C)C[C@@H]2N1C(=O)NCc1ccccc1` [compound 122], the IC50 was 1.54 ± 0.07 µM.

In the case of `C=CCN1CC(=O)N2[C@@H](Cc3ccc(O)cc3)C(=O)N(Cc3cccc4c(C(C)=O)c[nH]c34)C[C@@H]2N1C(=O)NCc1ccccc1` [compound 3], the IC50 was 0.098 ± 0.014 µM.

In the case of `C=CCN1CC(=O)N2[C@@H](Cc3ccc(O)cc3)C(=O)N(Cc3csc4cc(NC(=O)NC)ccc34)C[C@@H]2N1C(=O)NCc1ccccc1` [compound 155], the IC50 was found to be 11.8 ± 1.61 µM.

For `C#Cc1ccc(CNC(=O)N2[C@H]3CN(Cc4ccc(F)c5scnc45)C(=O)[C@H](Cc4ccc(O)cc4)N3C(=O)CN2CC=C)cc1` [compound 44], the IC50 amounted to 0.67 ± 0.05 µM.

For `C=CCN1CC(=O)N2[C@@H](Cc3ccc(O)cc3)C(=O)N(Cc3cccc(C(C)(C)C)c3OC)C[C@@H]2N1C(=O)NCc1ccccc1` [compound 89], the IC50 stood at 1.03 ± 0.11 µM.

For the compound `C=CCN1CC(=O)N2[C@@H](Cc3ccc(O)cc3)C(=O)N(Cc3cccc(C(=O)NCc4ccccc4)c3)C[C@@H]2N1C(=O)NCc1ccccc1` [compound 56], the IC50 worked out at 0.74 ± 1.46 µM.

`C=CCN1CC(=O)N2[C@@H](Cc3ccc(O)cc3)C(=O)N(Cc3cccc(-c4cccnc4OC)c3)C[C@@H]2N1C(=O)NCc1ccccc1` [compound 98]: the IC50 was 1.17 ± 0.15 µM.

On to `C=CCN1CC(=O)N2[C@@H](Cc3ccc(OS(N)(=O)=O)cc3)C(=O)N(Cc3cccc(C(N)=O)c3)C[C@@H]2N1C(=O)NCc1ccccc1` [compound 229], for which the IC50 was determined as 4.78 ± 0.69 µM.

Regarding `C=CCN1CC(=O)N2[C@@H](Cc3ccc(O)cc3)C(=O)N(Cc3cccc(NC(N)=O)c3)C[C@@H]2N1C(=O)NCc1ccccc1` [compound 225], the IC50 amounted to 4.3 ± 0.67 µM.

For the compound `C=CCN1CC(=O)N2[C@@H](Cc3ccc(O)cc3)C(=O)N(Cc3ccccc3S(=O)(=O)c3ccc(Cl)cc3)C[C@@H]2N1C(=O)NCc1ccccc1` [compound 170], the IC50 was determined as 2.07 ± 0.43 µM.

Consider `C=CCN1CC(=O)N2[C@@H](Cc3ccc(O)cc3)C(=O)N(Cc3csc4cc(NC=O)ccc34)C[C@@H]2N1C(=O)NCc1ccccc1` [compound 111], for which the IC50 amounted to 1.41 ± 0.21 µM.

`C=CCN1CC(=O)N2[C@@H](Cc3ccc(O)cc3)C(=O)N(Cc3ccnc(N)n3)C[C@@H]2N1C(=O)NCc1ccccc1` [compound 264]: the IC50 came to 9.11 ± 1.82 µM.

In the case of `C=CCN1CC(=O)N2[C@@H](Cc3ccc(O)cc3)C(=O)N(Cc3cccc(-c4ccc(OC)nc4)c3)C[C@@H]2N1C(=O)NCc1ccccc1` [compound 121], the concentration for half-maximal inhibition (IC50) was 1.53 ± 0.17 µM.

As to `C=CCN1CC(=O)N2[C@@H](Cc3ccc(O)cc3)C(=O)N(Cc3cccc(C(=O)NC)c3)C[C@@H]2N1C(=O)NCc1ccccc1` [compound 183], the half-maximal inhibitory concentration (IC50) was 52.5 ± 0.32 µM.

Regarding `C=CCN1CC(=O)N2[C@@H](Cc3ccc(O)cc3)C(=O)N(Cc3ccc(F)c4scnc34)C[C@@H]2N1C(=O)NCc1ccc(Cl)c(Cl)c1` [compound 41], the 50% inhibitory concentration (IC50) turned out to be 0.63 ± 0.09 µM.

As for `C=CCN1CC(=O)N2[C@@H](Cc3ccc(O)cc3)C(=O)N(Cc3csc4ccc(Cl)cc34)C[C@@H]2N1C(=O)NCc1ccccc1` [compound 43], the IC50 was 0.66 ± 0.06 µM.

In the case of `C=CCN1CC(=O)N2[C@@H](Cc3ccc(O)cc3)C(=O)N(Cc3cccc(C(=O)N(C)C)n3)C[C@@H]2N1C(=O)NCc1ccccc1` [compound 197], the IC50 came out at 21.8 ± 3.69 µM.

With `C=CCN1CC(=O)N2[C@@H](Cc3ccc(O)cc3)C(=O)N(Cc3cccc(NS(C)(=O)=O)c3)C[C@@H]2N1C(=O)NCc1ccccc1` [compound 181], the IC50 was found to be 2.47 ± 0.37 µM.

On to `C=CCN1CC(=O)N2[C@@H](Cc3ccc(O)cc3)C(=O)N(Cc3ccc(OC)c(Br)c3)C[C@@H]2N1C(=O)NCc1ccccc1` [compound 129], for which the IC50 is 1.64 ± 0.27 µM.

On to `C=CCN1CC(=O)N2[C@@H](Cc3ccc(O)cc3)C(=O)N(Cc3ccc(F)c4scnc34)C[C@@H]2N1C(=O)NCC1CCCCC1` [compound 238], for which the IC50 came out at 49.8 ± 4.8 µM.

Regarding `C=CCN1CC(=O)N2[C@@H](Cc3ccc(O)cc3)C(=O)N(Cc3cccc(C(=O)NCCO)c3)C[C@@H]2N1C(=O)NCc1ccccc1` [compound 256], the concentration for half-maximal inhibition (IC50) worked out at 7.2 ± 1.06 µM.

As for `C=CCN1CC(=O)N2[C@@H](Cc3ccc(O)c(Cl)c3)C(=O)N(Cc3cccc4scnc34)C[C@@H]2N1C(=O)NCc1ccccc1` [compound 234], the IC50 stood at 40.2 ± 5.7 µM.

For `C=CCN1CC(=O)N2[C@@H](Cc3ccc(O)cc3)C(=O)N(Cc3cccc4c(-c5ccccc5)cn(S(=O)(=O)c5ccccc5)c34)C[C@@H]2N1C(=O)NCc1ccccc1` [compound 27], the IC50 was 0.52 ± 0.09 µM.

On to `C=CCN1CC(=O)N2[C@@H](Cc3ccc(O)cc3)C(=O)N(Cc3csc4cc([N+](=O)[O-])ccc34)C[C@@H]2N1C(=O)NCc1ccccc1` [compound 75], for which the IC50 came out at 0.92 ± 0.14 µM.

`C=CCN1CC(=O)N2[C@@H](Cc3ccc(O)cc3)C(=O)N(Cc3csc4c([N+](=O)[O-])cccc34)C[C@@H]2N1C(=O)NCc1ccccc1` [compound 59]: the IC50 is 0.78 ± 0.15 µM.

In the case of `C=CCN1CC(=O)N2[C@@H](Cc3ccc(O)cc3)C(=O)N(Cc3cccc4cc[nH]c34)C[C@@H]2N1C(=O)NCc1ccccc1` [compound 65], the IC50 was determined as 0.83 ± 0.22 µM.

Turning to `C=CCN1CC(=O)N2[C@@H](Cc3ccc(O)cc3)C(=O)N(CC3=CS(=O)(=O)c4ccccc43)C[C@@H]2N1C(=O)NCc1ccccc1` [compound 263], the IC50 is 9.09 ± 0.67 µM.

The assay is the same for the next values; noted with them: Homo sapiens, SW480; read-out: RGA, IC50 (μM) TopF.
Take `C=CCOc1c(CN2C[C@H]3N(C(=O)CN(CC=C)N3C(=O)NCc3ccccc3)[C@@H](Cc3ccc(O)cc3)C2=O)cccc1OC` [compound 90]: the IC50 came out at 1.03 ± 0.16 µM.

Another assay deals with T1, cDNA-expressed human hepatic CYP3A4 (Homo sapiens, UniProt P08684).
T1 construct: purchased BD Gentest 456202
T1 sequence (P08684 whole entry): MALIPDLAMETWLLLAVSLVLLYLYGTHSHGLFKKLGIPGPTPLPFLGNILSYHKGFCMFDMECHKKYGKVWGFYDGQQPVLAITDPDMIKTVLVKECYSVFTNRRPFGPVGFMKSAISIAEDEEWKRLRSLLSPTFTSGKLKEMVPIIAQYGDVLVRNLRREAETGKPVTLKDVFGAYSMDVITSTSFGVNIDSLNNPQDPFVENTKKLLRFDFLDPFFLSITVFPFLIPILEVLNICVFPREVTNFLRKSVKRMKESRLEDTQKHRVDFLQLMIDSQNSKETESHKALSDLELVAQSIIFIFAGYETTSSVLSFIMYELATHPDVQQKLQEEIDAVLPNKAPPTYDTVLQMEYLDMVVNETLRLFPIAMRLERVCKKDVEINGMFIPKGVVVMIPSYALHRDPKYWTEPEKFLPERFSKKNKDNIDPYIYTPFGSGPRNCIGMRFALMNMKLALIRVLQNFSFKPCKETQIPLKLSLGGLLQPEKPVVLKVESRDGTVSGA
Briefly: P450 CYP3A4 inhibitory activity screening (BFC substrate, fluorescence). The assay is classed as biochemical. The settings on record: P450 CYP3A4 inhibitory activity screening, fluorescent assay; read-out: CYP3A4 inhibition, IC50 (μM) fluorescent assay. The procedure:
P450 CYP3A4 Inhibitory Activity Screening
Assay was conducted in a 200 μL volume in 96-well microtiter plates using cDNA-expressed human hepatic CYP3A4 (supersome, BD Gentest™ #456202). 7-Benzyloxy-4-trifluoromethyl-coumarin (BFC) was used as a substrate for CYP3A4. Test articles and substrate BFC were dissolved in 100% acetonitrile. The final volume of acetonitrile in the incubation mixture was less than 1% (volume/volume). Potassium phosphate buffer (pH 7.4, final concentration 0.1 M), MgCl2 (final concentration 8.3 mM), EDTA (final concentration 1.67 mM), a test article stock solution, a CYP3A4 supersome and NADPH (final concentration 0.25 mM) were added to each well. The reaction was initiated by the addition of substrate (BFC, final concentration 30 µM) after a 10 min pre-incubation at 37° C. After 10 min incubation at 37° C., the reaction was terminated by the addition of 75 μL of acetonitrile:0.5 M Tris-base=4:1 (volume/volume). Thereafter, Fluorescent signal was measured using a fluorometer. BFC metabolite, 7-hydroxy-4-trifluoromethyl-coumarin, was measured using an excitation wavelength of 409 nm and an emission wavelength of 530 nm.
Take `C=CCN1CC(=O)N2[C@@H](Cc3ccc(O)cc3)C(=O)N(Cc3cccc(N(C)C=O)c3)C[C@@H]2N1C(=O)NCc1ccccc1` [compound 2]: the half-inhibitory concentration (IC50) was 5.23 µM.

In the case of `C=CCN1CC(=O)N2[C@@H](Cc3ccc(O)cc3)C(=O)N(Cc3cccnc3Br)C[C@@H]2N1C(=O)NCc1ccccc1` [compound 3], the IC50 was determined as 5.33 µM.

For the compound `C=CCN1CC(=O)N2[C@@H](Cc3ccc(OS(N)(=O)=O)cc3)C(=O)N(Cc3cccc4c3ncn4C)C[C@@H]2N1C(=O)NCc1ccccn1` [compound 23], the IC50 was found to be 12 µM.

In the case of `C=CCN1CC(=O)N2[C@@H](Cc3ccc(O)cc3)C(=O)N(Cc3cccc(C(=O)OCC)n3)C[C@@H]2N1C(=O)NCc1ccccc1` [compound 31], the IC50 came out at 18.9 µM.

`CN1CC(=O)N2[C@@H](Cc3ccc(O)cc3)C(=O)N(Cc3cccc4c3ncn4C)C[C@@H]2N1C(=O)NCc1ccccc1` [compound 40]: the IC50 turned out to be 39.1 µM.

With `C=CCN1CC(=O)N2[C@@H](Cc3ccc(O)cc3)C(=O)N(Cc3cccc(-c4cccc(C(=O)O)c4)c3)C[C@@H]2N1C(=O)NCc1ccccc1` [compound 24], the IC50 stood at 12.9 µM.

Take `C=CCN1CC(=O)N2[C@@H](Cc3ccc(O)cc3)C(=O)N(Cc3cccc(NC(=O)NC(N)=O)c3)C[C@@H]2N1C(=O)NCc1ccccc1` [compound 27]: the IC50 is 16.8 µM.

`C=CCN1CC(=O)N2[C@@H](Cc3ccc(O)cc3)C(=O)N(Cc3cccnc3N3CCC(N4CCCC4)CC3)C[C@@H]2N1C(=O)NCc1ccccc1` [compound 7]: the 50% inhibitory concentration (IC50) was found to be 6.84 µM.

`C=CCN1CC(=O)N2[C@@H](Cc3ccc(O)cc3)C(=O)N(Cc3cccc4c3ncn4CC(N)=O)C[C@@H]2N1C(=O)NCc1ccccc1` [compound 58]: the IC50 was greater than 50 µM.

As for `C=CCN1CC(=O)N2[C@@H](Cc3ccc(O)cc3)C(=O)N(Cc3cccc(N(C)C(=O)OC)c3)C[C@@H]2N1C(=O)NCc1ccccc1` [compound 21], the IC50 came to 10.2 µM.

As for `C=CCN1CC(=O)N2[C@@H](Cc3ccc(O)cc3)C(=O)N(Cc3cccc4c(C(C)=O)c[nH]c34)C[C@@H]2N1C(=O)NCc1ccccc1` [compound 60], the IC50 came out at 4.84 µM.

With `C=CCN1CC(=O)N2[C@@H](Cc3ccc(O)cc3)C(=O)N(Cc3cccc(C(=O)NCC4CC4)c3)C[C@@H]2N1C(=O)NCc1ccccc1` [compound 12], the 50% inhibitory concentration (IC50) was 7.65 µM.

With `C=CCN1CC(=O)N2[C@@H](Cc3ccc(O)cc3)C(=O)N(Cc3cccc4c3ncn4CCC)C[C@@H]2N1C(=O)NCc1ccccc1` [compound 14], the IC50 came out at 8.42 µM.

For `C=CCN1CC(=O)N2[C@@H](Cc3ccc(O)cc3)C(=O)N(Cc3cccc(C(=O)OC)c3)C[C@@H]2N1C(=O)NCc1ccccc1` [compound 11], the IC50 was found to be 7.58 µM.

For `C=CCN1CC(=O)N2[C@@H](Cc3ccc(O)cc3)C(=O)N(Cc3cccc(NS(C)(=O)=O)c3)C[C@@H]2N1C(=O)NCc1ccccc1` [compound 18], the IC50 worked out at 9.16 µM.

With `C=CCN1CC(=O)N2[C@@H](Cc3ccc(O)cc3)C(=O)N(Cc3cccc(NC(N)=O)c3)C[C@@H]2N1C(=O)NCc1ccccc1` [compound 37], the half-maximal inhibitory concentration (IC50) was 34.3 µM.

For `C=CCN1CC(=O)N2[C@@H](Cc3ccc(O)cc3)C(=O)N(Cc3cccc(C(=O)NCC4CCCO4)c3)C[C@@H]2N1C(=O)NCc1ccccc1` (some centres unmarked) [compound 17], the IC50 was determined as 9.02 µM.

Still in this assay, the particulars now being: human CYP3A4 supersome, substrate BFC, 10 min incubation at 37° C.; read-out: IC50 values of Compounds against CYP3A4 activity.
With `C=CCN1CC(=O)N2[C@@H](Cc3ccc(O)cc3)C(=O)N(Cc3cccc4c3nc(C(F)(F)F)n4C)C[C@@H]2N1C(=O)NCc1ccccc1` [E], the IC50 was greater than 10 µM.

A word on the IC50: it is the concentration at which inhibition is half-maximal.
